According to patent US11352350B2, “IRAK degraders and uses thereof” (Kymera Therapeutics, Inc., priority 2018, dated 2022):
Where two headings read alike, the source gives them in different places.

Biological target: IRAK4 (Homo sapiens (Human), UniProt Q9NWZ3)
Assay: IRAK4 MSD degradation in OCI-LY10
Type: cell-based
Method: Degradation of IRAK4 in OCI-LY10 was quantitatively measured using Meso Scale Discovery technology. […] Compounds were then added to the assay plates with a final top concentration of 1 to 10 μM in a 1:3 dilution series with total of 8 doses. The assay plates were then incubated for 4 to 24 hours at 37° C. under 5% CO2. […] To prepare MSD assay plates (Meso Scale Discovery Catalog number L15XA-3), the plates were coated with […] capture antibody (mouse Anti-IRAK4 antibody [2H9], ab119942) in PBS, at 40 μL/well. […] Cell lysates were then added to MSD assay plates and the plates were incubated at room temperature for 1 hour. The plates were then washed 3 times with 150 μL/well TBST buffer and 25 μL/well primary detection antibody (rabbit Anti-IRAK4 antibody [Y279], from Abcam. Catalog number ab32511, […]). The assay plates were then incubated at room temperature for 1 hour, washed 3 times with 150 μL/well TBST buffer and 25 µL/well secondary detection antibody, SULFO-TAG anti-rabbit antibody were added (anti rabbit antibody from Meso Scale Discovery, Catalog number R32AB-1, 1 μg/mL). The assay plates were then incubated at room temperature for 1 hour, washed 3 times with 150 μL/well TB ST buffer, and 150 μL/well MSD reading buffer (Meso Scale Discovery catalog number R92TC-2) was added. The plates were then analyzed by a MSD reader (Meso Scale Discovery, Model Quick Plex SQ 120). The data was then analyzed by software Prism 7.0 from GraphPad and the dose-depended IRAK4 degradation were fit using a three-parameter logistic equation to calculate DC50.

[1] = OCI-LY10, 4 hrs, MSD, read-out: IRAK4 MSD degradation in OCI-LY10 at 4 hrs: Average external-Abs DC50
[2] = OCI-LY10, 24 hrs, MSD, read-out: IRAK4 MSD degradation in OCI-LY10 at 24 hrs: Average external-Abs DC50

IRAK4, sequence (Q9NWZ3 whole entry): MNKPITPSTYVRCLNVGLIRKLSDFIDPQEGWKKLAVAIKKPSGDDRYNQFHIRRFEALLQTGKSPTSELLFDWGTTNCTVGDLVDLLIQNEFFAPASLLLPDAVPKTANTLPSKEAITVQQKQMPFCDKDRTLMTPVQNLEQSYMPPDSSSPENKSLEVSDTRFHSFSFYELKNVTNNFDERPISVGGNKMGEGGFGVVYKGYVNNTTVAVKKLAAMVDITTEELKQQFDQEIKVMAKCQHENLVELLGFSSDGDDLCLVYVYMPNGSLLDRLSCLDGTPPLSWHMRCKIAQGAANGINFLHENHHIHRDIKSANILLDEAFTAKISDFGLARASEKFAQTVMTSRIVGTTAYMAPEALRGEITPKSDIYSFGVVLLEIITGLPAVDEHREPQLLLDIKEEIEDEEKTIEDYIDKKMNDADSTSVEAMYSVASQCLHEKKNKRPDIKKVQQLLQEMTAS

SMILES	DC50 [1] [nM]	also measured
Cn1c(=O)n(C2CCC(=O)NC2=O)c2cccc(CCCOCCOCCOCCOCC(=O)N3CCN([C@H]4CC[C@H](Nc5ncnn6ccc(C7CCOCC7)c56)CC4)CC3)c21 (stereo partly drawn) [I-19]	> 1000	DC50 [2]: > 1000 nM
CN(CCOCCNCc1ccc2c(c1)n(C)c(=O)n2C1CCC(=O)NC1=O)C(=O)[C@H]1CC[C@H](n2cc(NC(=O)c3coc(-c4ccnc(NCC5CC5)c4)n3)c(C(F)F)n2)CC1 (stereo partly drawn) [I-55]	< 10	
CN(CCOCC1CCN(c2ccc3c(c2)n(C)c(=O)n3C2CCC(=O)NC2=O)CC1)C[C@H]1CC[C@H](n2cc(NC(=O)c3coc(-c4ccnc(NCC5CC5)c4)n3)c(C(F)F)n2)CC1 (stereo partly drawn) [I-56]	100 to 1000	
CN(CC1CCN(CCC#Cc2ccc3c(c2)n(C)c(=O)n3C2CCC(=O)NC2=O)CC1)C[C@H]1CC[C@H](n2cc(NC(=O)c3coc(-c4ccnc(NCC5CC5)c4)n3)c(C(F)F)n2)CC1 (stereo partly drawn) [I-57]	< 10	
Cn1c(=O)n(C2CCC(=O)NC2=O)c2ccc(CCCN3CCO[C@@H](CNC[C@H]4CC[C@H](n5cc(NC(=O)c6coc(-c7ccnc(NCC(F)(F)F)c7)n6)c(C(C)(C)O)n5)CC4)C3)cc21 (stereo partly drawn) [I-60]	10 to 100	
CC(C)N(CCCOCCCc1cccc2c1n(C)c(=O)n2C1CCC(=O)NC1=O)C[C@H]1CC[C@H](n2cc(NC(=O)c3coc(-c4ccnc(NCC5CC5)c4)n3)c(C(F)F)n2)CC1 (stereo partly drawn) [I-63]	10 to 100	
Cn1c(=O)n(C2CCC(=O)NC2=O)c2cccc(CCCOCCCN(C[C@H]3CC[C@H](n4cc(NC(=O)c5coc(-c6ccnc(NCC7CC7)c6)n5)c(C(F)F)n4)CC3)C3CC3)c21 (stereo partly drawn) [I-64]	100 to 1000	
CN(CCCCc1cccc2c1n(C)c(=O)n2C1CCC(=O)NC1=O)C[C@H]1CC[C@H](n2cc(NC(=O)c3coc(-c4ccnc(NCC5CC5)c4)n3)c(C(F)F)n2)CC1 (stereo partly drawn) [I-66]	< 10	
CNc1cc(-c2nc(C(=O)Nc3cn([C@H]4CC[C@H](CN(C)CCCOCCCc5cccc6c5n(C)c(=O)n6C5CCC(=O)NC5=O)CC4)nc3C(F)F)co2)ccn1 (stereo partly drawn) [I-68]	10 to 100	
CN(CCCOCCCc1cccc2c1n(C)c(=O)n2C1CCC(=O)NC1=O)C[C@H]1CC[C@H](n2cc(NC(=O)c3coc(-c4ccncc4)n3)c(C(F)F)n2)CC1 (stereo partly drawn) [I-69]	100 to 1000	
CN(CCCOCCCc1cccc2c1n(C)c(=O)n2C1CCC(=O)NC1=O)C[C@H]1CC[C@H](n2cc(NC(=O)c3cccc(C(F)(F)F)n3)c(C(C)(C)O)n2)CC1 (stereo partly drawn) [I-71]	100 to 1000	
Cn1c(=O)n(C2CCC(=O)NC2=O)c2cccc(CCCO[C@H]3CCN(C[C@H]4CC[C@H](n5cc(NC(=O)c6coc(-c7ccnc(NCC8CC8)c7)n6)c(C(F)F)n5)CC4)C3)c21 (stereo partly drawn) [I-72]	10 to 100	
Cn1c(=O)n(C2CCC(=O)NC2=O)c2cccc(CCCO[C@@H]3CCN(C[C@H]4CC[C@H](n5cc(NC(=O)c6coc(-c7ccnc(NCC8CC8)c7)n6)c(C(F)F)n5)CC4)C3)c21 (stereo partly drawn) [I-73]	< 10	
Cn1c(=O)n(C2CCC(=O)NC2=O)c2cccc(CN3CCC(CC4CCN(C[C@H]5CC[C@H](n6cc(NC(=O)c7coc(-c8ccnc(NCC9CC9)c8)n7)c(C(F)F)n6)CC5)CC4)CC3)c21 (stereo partly drawn) [I-74]	< 10	
CN(C[C@H]1CN(Cc2cccc3c2n(C)c(=O)n3C2CCC(=O)NC2=O)CCO1)C[C@H]1CC[C@H](n2cc(NC(=O)c3coc(-c4ccnc(NCC5CC5)c4)n3)c(C(F)F)n2)CC1 (stereo partly drawn) [I-77]	10 to 100	
CN(C[C@@H]1CN(Cc2cccc3c2n(C)c(=O)n3C2CCC(=O)NC2=O)CCO1)C[C@H]1CC[C@H](n2cc(NC(=O)c3coc(-c4ccnc(NCC5CC5)c4)n3)c(C(F)F)n2)CC1 (stereo partly drawn) [I-78]	10 to 100	
CN(CCC1CCN(Cc2cccc3c2n(C)c(=O)n3C2CCC(=O)NC2=O)CC1)C[C@H]1CC[C@H](n2cc(NC(=O)c3coc(-c4ccnc(NCC5CC5)c4)n3)c(C(F)F)n2)CC1 (stereo partly drawn) [I-79]	10 to 100	
CN(CCCOCCCc1ccc2c(c1)n(C)c(=O)n2C1CCC(=O)NC1=O)C[C@H]1CC[C@H](n2cc(NC(=O)c3coc(-c4ccnc(NCC5CC5)c4)n3)c(C(C)(C)O)n2)CC1 (stereo partly drawn) [I-83]	100 to 1000	
CN(CCCOCCCc1ccc2c(c1)oc(=O)n2C1CCC(=O)NC1=O)C[C@H]1CC[C@H](n2cc(NC(=O)c3coc(-c4ccnc(NCC5CC5)c4)n3)c(C(F)F)n2)CC1 (stereo partly drawn) [I-87]	< 10	

SMILES	DC50 [1] [nM]	also measured
CN(CCCOCC#Cc1cccc2c1n(C)c(=O)n2C1CCC(=O)NC1=O)C[C@H]1CC[C@H](n2cc(NC(=O)c3coc(-c4ccnc(NCC5CC5)c4)n3)c(C(F)F)n2)CC1 (stereo partly drawn) [I-88]	100 to 1000	
CN(CCOC(=O)NCc1ccc2c(c1)n(C)c(=O)n2C1CCC(=O)NC1=O)C[C@H]1CC[C@H](n2cc(NC(=O)c3coc(-c4ccnc(NCC5CC5)c4)n3)c(C(F)F)n2)CC1 (stereo partly drawn) [I-91]	100 to 1000	
O=C1CCC(n2c3cccc(CCCOCCOCCNC[C@H]4CC[C@H](n5cc(NC(=O)c6coc(-c7ccnc(NCC8CC8)c7)n6)c(C(F)F)n5)CC4)c3c3cccnc32)C(=O)N1 (stereo partly drawn) [I-93]	10 to 100	
CN(CC[C@H]1CN(CCCc2ccc3c(c2)n(C)c(=O)n3C2CCC(=O)NC2=O)CCO1)C[C@H]1CC[C@H](n2cc(NC(=O)c3coc(-c4ccnc(NCC5CC5)c4)n3)c(C(F)F)n2)CC1 (stereo partly drawn) [I-96]	10 to 100	
CN(CC[C@@H]1CN(CCCc2ccc3c(c2)n(C)c(=O)n3C2CCC(=O)NC2=O)CCO1)C[C@H]1CC[C@H](n2cc(NC(=O)c3coc(-c4ccnc(NCC5CC5)c4)n3)c(C(F)F)n2)CC1 (stereo partly drawn) [I-97]	< 10	
CN(CCOCCCc1cccc2c1N(C)C(=O)C2C1CCC(=O)NC1=O)CC[C@H]1CC[C@H](n2cc(NC(=O)c3coc(-c4ccnc(NCC5CC5)c4)n3)c(C(F)F)n2)CC1 (stereo partly drawn) [I-154]	10 to 100	DC50 [2]: 10 to 100 nM
Cn1c(=O)n(C2CCC(=O)NC2=O)c2ccc(CN3CCC(CCO[C@H]4C[C@H](N(C)C[C@H]5CC[C@H](n6cc(NC(=O)c7coc(-c8ccnc(NCC9CC9)c8)n7)c(C(F)F)n6)CC5)C4)CC3)cc21 (stereo partly drawn) [I-238]	10 to 100	
Cn1c(=O)n(C2CCC(=O)NC2=O)c2cccc(CN3CCC(OCC4CCN(C[C@H]5CC[C@H](n6cc(NC(=O)c7coc(-c8ccnc(NCC9CC9)c8)n7)c(C(F)F)n6)CC5)CC4)CC3)c21 (stereo partly drawn) [I-248]	< 10	
Cn1c(=O)n(C2CCC(=O)NC2=O)c2cccc(CCCOC3CCN(C[C@H]4CC[C@H](n5cc(NC(=O)c6cnn7cccnc67)c(C(F)F)n5)CC4)CC3)c21 (stereo partly drawn) [I-251]	100 to 1000	
Cn1c(=O)n(C2CCC(=O)NC2=O)c2cccc(CN3CCC(CCCN4CCC(n5cc(NC(=O)c6coc(-c7ccnc(NCC8CC8)c7)n6)c(C(F)F)n5)CC4)CC3)c21 (stereo not drawn) [I-253]	10 to 100	
Cn1c(=O)n(C2CCC(=O)NC2=O)c2ccc(CN3CCC(CCC(=O)N4CCC(n5cc(NC(=O)c6coc(-c7ccnc(NCC8CC8)c7)n6)c(C(F)F)n5)CC4)CC3)cc21 (stereo not drawn) [I-255]	10 to 100	DC50 [2]: < 10 nM
Cn1c(=O)n(C2CCC(=O)NC2=O)c2cccc(CN3CCC(OC4CCN(C[C@H]5CC[C@H](n6cc(NC(=O)c7coc(-c8ccnc(NCC9CC9)c8)n7)c(C(F)F)n6)CC5)CC4)CC3)c21 (stereo partly drawn) [I-256]	< 10	
CN1CCN(c2ccn3ncc(C(=O)Nc4cn([C@H]5CC[C@H](CN6CCC(OCCCc7cccc8c7n(C)c(=O)n8C7CCC(=O)NC7=O)CC6)CC5)nc4C(F)F)c3c2)CC1 (stereo partly drawn) [I-258]	10 to 100	DC50 [2]: 10 to 100 nM
Cn1c(=O)n(C2CCC(=O)NC2=O)c2ccc(CCCOCCCCCN3CCC(n4cc(NC(=O)c5coc(-c6ccnc(NCC7CC7)c6)n5)c(C(F)F)n4)CC3)cc21 (stereo not drawn) [I-261]	< 10	DC50 [2]: < 10 nM
Cn1c(=O)n(C2CCC(=O)NC2=O)c2cccc(CCCOCCCCCN3CCC(n4cc(NC(=O)c5coc(-c6ccnc(NCC7CC7)c6)n5)c(C(F)F)n4)CC3)c21 (stereo not drawn) [I-262]	< 10	DC50 [2]: < 10 nM
Cn1c(=O)n(C2CCC(=O)NC2=O)c2cccc(CN3CCC(CCN4CCC(n5cc(NC(=O)c6coc(-c7ccnc(NCC8CC8)c7)n6)c(C(F)F)n5)CC4)CC3)c21 (stereo not drawn) [I-264]	< 10	DC50 [2]: < 10 nM
O=C1CCC(n2c3ccc(CCCN4CC5(CCN(C(=O)[C@H]6CC[C@H](n7cc(NC(=O)c8cnn9ccc(N%10C[C@H]%11C[C@@H]%10CO%11)nc89)c(C(F)F)n7)CC6)CC5)C4)cc3c3cccnc32)C(=O)N1 (stereo partly drawn) [I-388]	10 to 100	
O=C1CCC(N2C(=O)c3ccc(NCC4CC5(CCN(C[C@H]6CC[C@H](n7cc(NC(=O)c8cnn9ccc(N%10C[C@H]%11C[C@@H]%10CO%11)nc89)c(C(F)F)n7)CC6)CC5)C4)cc3C2=O)C(=O)N1 (stereo partly drawn) [I-556]		DC50 (OCI-LY10, 4 hrs, read-out: IRAK4 MSD degradation in OCI-LY10 at 4 hrs: DC50): 10 to 100 nM; DC50 (OCI-LY10, 24 hrs, read-out: IRAK4 MSD degradation in OCI-LY10 at 24 hrs: DC50): < 10 nM
